Among the test systems are CCRF-CEM; A549; SK-MEL-5; NCI/ADR-RES; SN12C; SR; HCT-15; A498; RXF 393; NCI-H23; SK-MEL-28; SK-OV-3; COLO 205; HL-60; SF-268; MCF7; UO-31; Malme-3M; NCI-H522.
What all share (test): NCI anticancer screen, dose series, 48 h

Each structure is given as a SMILES string.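 These data come from cells grown in 96-well plates and exposed to compound for 48 hours at five concentrations. GI50 = concentration required for 50% inhibition of growth.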 Activity calls are given as the source filed them. Rule as the data show it: active = GI50 up to about 1.1 µM and inactive = higher. Where only a bound is given, the exact number is not on record here.

On to `CNC(=O)CC1NC(=O)c2csc(n2)-c2ccc(-c3nc(C4=NC(C(=O)N5CCCC5C(N)=O)CO4)cs3)nc2-c2csc(n2)-c2csc(n2)C(C(C)C)NC(=O)CNC(=O)c2csc(n2)C(C(C)C)NC(=O)c2nc1sc2C` (stereo not drawn), for which the GI50 in the assay on CCRF-CEM is 0.00527 µM (active); in the assay on A549, 0.00724 µM (active); in the assay on SK-MEL-5, 0.00289 µM (active); in the assay with NCI/ADR-RES it was 6.05 µM (inactive); in the assay on SN12C, 0.00398 µM (active); in the assay on SR, > 25 µM (inactive). The GI50 with HCT-15 was 0.479 µM; with A498, 0.0923 µM (active); in the assay with RXF 393, 0.00386 µM (active); in the assay with NCI-H23, 0.00239 µM (active); in the assay with SK-MEL-28, > 25 µM (inactive); in the assay on SK-OV-3, 0.0013 µM (active). The GI50 with COLO 205 was 0.00126 µM (active); in the assay with HL-60, > 25 µM (inactive); with SF-268, 0.0625 µM (active); in the assay on MCF7, > 25 µM (inactive); in the assay with UO-31, 2.18 µM (inactive); with Malme-3M, > 25 µM (inactive).

In the case of `O=C1C2=Cc3ccccc3CCN2c2ccc([N+](=O)[O-])cc21`, the GI50 with CCRF-CEM is 53.3 µM (inactive); with A549 it was 31.3 µM (inactive); in the assay on SK-MEL-5 it was 21.9 µM (inactive); in the assay on NCI/ADR-RES, 24 µM (inactive); in the assay with SN12C, 81.5 µM (inactive); with SR it was 66.8 µM (inactive). The GI50 is 58.3 µM in the assay on HCT-15; 35.9 µM (inactive) in the assay with A498; > 100 µM (inactive) with RXF 393; 38.5 µM (inactive) in the assay on NCI-H23; > 100 µM (inactive) with SK-MEL-28; 43.2 µM (inactive) in the assay on COLO 205. Also, the GI50 in the assay on NCI-H522 is 24 µM (inactive); in the assay on HL-60, 66.5 µM (inactive); in the assay on SF-268, 91.4 µM (inactive); in the assay on MCF7, 2.92 µM (inactive); with UO-31 it was 24.2 µM (inactive); in the assay on Malme-3M, 32.7 µM (inactive).

As for `COC(=O)c1ccc(/C=N/c2ccc(S(N)(=O)=O)cc2)cc1`, the GI50 in the assay with CCRF-CEM is 30.8 µM (inactive); in the assay with A549, > 100 µM (inactive); in the assay on SK-MEL-5, > 100 µM (inactive); with NCI/ADR-RES, 58.5 µM (inactive); in the assay with SN12C, 73.8 µM (inactive); in the assay on SR it was 43 µM (inactive). The GI50 in the assay with HCT-15 was greater than 100 µM; in the assay on A498, > 100 µM (inactive); in the assay on RXF 393 it was > 100 µM (inactive); with NCI-H23 it was 0.0188 µM (active); in the assay on SK-MEL-28, > 100 µM (inactive); in the assay on SK-OV-3, > 100 µM (inactive). Besides, the GI50 is > 100 µM (inactive) with COLO 205; 97.1 µM (inactive) in the assay with HL-60; > 100 µM (inactive) with SF-268; 41.8 µM (inactive) with MCF7; 74.5 µM (inactive) in the assay with UO-31; 85.5 µM (inactive) in the assay on Malme-3M.

Take `COc1ccccc1N1C(=O)CSC1c1cc(OC)c(OC)c(OC)c1` (stereo not drawn): the GI50 in the assay with CCRF-CEM is 13.2 µM (inactive); in the assay on A549, > 100 µM (inactive); with SK-MEL-5 it was 25.5 µM (inactive); in the assay on NCI/ADR-RES it was 69.8 µM (inactive); in the assay on SN12C, > 100 µM (inactive); in the assay with SR it was 10.7 µM (inactive). Also, the GI50 in the assay with HCT-15 is 50.6 µM; with A498, > 100 µM (inactive); in the assay with RXF 393, > 52.1 µM (inactive); in the assay with NCI-H23, > 100 µM (inactive); in the assay on SK-MEL-28, > 89.9 µM (inactive); with COLO 205, > 100 µM (inactive). Further, the GI50 in the assay on NCI-H522 was 17.7 µM (inactive); in the assay with HL-60, 20.5 µM (inactive); with SF-268 it was > 46.1 µM (inactive); in the assay with MCF7 it was 16.3 µM (inactive); in the assay with UO-31, > 76.7 µM (inactive); in the assay with Malme-3M, > 22.3 µM (inactive).

Take `CC(=O)NC1C(OCc2ccccc2)OC(CO)C(O)C1OCC(=O)NC(C)C(=O)NC(CCC(=O)Nc1ccc2c(c1)CN1C(=O)c3ccccc3C1=N2)C(N)=O` (stereo not drawn): the GI50 in the assay on CCRF-CEM, in the assay on A549, with SK-MEL-5, with NCI/ADR-RES, in the assay with SN12C and in the assay with SR was > 100 µM (inactive) throughout. Also, the GI50 in the assay with HCT-15 was greater than 100 µM; with A498, > 100 µM (inactive); in the assay on RXF 393, > 100 µM (inactive); in the assay with NCI-H23 it was > 100 µM (inactive); in the assay on SK-MEL-28 it was > 100 µM (inactive); in the assay on SK-OV-3, > 100 µM (inactive). In addition, the GI50 with COLO 205 is > 100 µM (inactive); in the assay with HL-60, > 100 µM (inactive); with SF-268 it was > 100 µM (inactive); with MCF7 it was 53.2 µM (inactive); with UO-31 it was > 100 µM (inactive); in the assay with Malme-3M, > 100 µM (inactive).

`O=c1cnn(C2OC(C(O)CO)C(O)C2O)c(=O)[nH]1` (stereo not drawn): the GI50 in the assay with CCRF-CEM, with A549, in the assay with SK-MEL-5, in the assay on NCI/ADR-RES, in the assay on SN12C and in the assay on SR was > 100 µM (inactive) throughout. The GI50 was greater than 100 µM with HCT-15; > 100 µM (inactive) in the assay with RXF 393; > 100 µM (inactive) in the assay on NCI-H23; > 100 µM (inactive) in the assay with SK-MEL-28; > 100 µM (inactive) with SK-OV-3; > 100 µM (inactive) in the assay on COLO 205. The GI50 with NCI-H522, in the assay with HL-60, in the assay with SF-268, with MCF7, in the assay on UO-31 and in the assay on Malme-3M was > 100 µM (inactive) each time.

As for `Cc1cc(C)c2c(O)c(S(=O)(=O)c3ccc(Cl)cc3)c(=O)oc2c1`, the GI50 is 42.5 µM (inactive) in the assay on CCRF-CEM; 46.3 µM (inactive) in the assay with A549; 60 µM (inactive) with SK-MEL-5; 26.2 µM (inactive) with NCI/ADR-RES; 65.3 µM (inactive) with SN12C; 82.4 µM (inactive) in the assay on SR. The GI50 is 49.7 µM in the assay with HCT-15; > 100 µM (inactive) with A498; > 100 µM (inactive) in the assay on RXF 393; 84.1 µM (inactive) with NCI-H23; 51.9 µM (inactive) in the assay on SK-MEL-28; 70.8 µM (inactive) in the assay on SK-OV-3. Further, the GI50 in the assay on COLO 205 was > 100 µM (inactive); with HL-60, 52.8 µM (inactive); in the assay with SF-268, 40.2 µM (inactive); with MCF7 it was 50.6 µM (inactive); in the assay with UO-31, 50.8 µM (inactive); in the assay on Malme-3M, 59.7 µM (inactive).

`C=CCNC(=S)N/C=C(\C(=O)OCC)C(=O)C(=O)OCC`: the GI50 in the assay with CCRF-CEM, in the assay with A549, in the assay on SK-MEL-5, in the assay with NCI/ADR-RES, in the assay with SN12C and in the assay on SR was > 100 µM (inactive) throughout. The GI50 in the assay on HCT-15 is greater than 100 µM; in the assay with RXF 393, > 100 µM (inactive); in the assay on NCI-H23, > 100 µM (inactive); in the assay on SK-MEL-28, > 100 µM (inactive); in the assay on SK-OV-3, > 100 µM (inactive); with COLO 205 it was > 100 µM (inactive). The GI50 with NCI-H522, in the assay on HL-60, in the assay on SF-268, with MCF7, with UO-31 and in the assay with Malme-3M was > 100 µM (inactive) each time.

For `COc1ccc(C2Oc3c(cccc3OC)C=C2[N+](=O)[O-])cc1OC` (stereo not drawn), the GI50 in the assay on CCRF-CEM is 1.58 µM (inactive); in the assay with A549, 14.7 µM (inactive); in the assay on SK-MEL-5, 4.14 µM (inactive); in the assay on NCI/ADR-RES, 3.87 µM (inactive); in the assay with SN12C, 5.55 µM (inactive); in the assay with SR it was 2.59 µM (inactive). Besides, the GI50 is 3.46 µM in the assay on HCT-15; 2.57 µM (inactive) in the assay on RXF 393; 4.41 µM (inactive) in the assay with NCI-H23; 4.22 µM (inactive) in the assay with SK-MEL-28; 4.9 µM (inactive) with SK-OV-3; 13.7 µM (inactive) in the assay on COLO 205. The GI50 in the assay on NCI-H522 was 2.97 µM (inactive); in the assay with HL-60, 2.62 µM (inactive); in the assay on SF-268, 15.9 µM (inactive); with MCF7, 4.12 µM (inactive); in the assay with UO-31, 14.7 µM (inactive); in the assay with Malme-3M, 7.59 µM (inactive).

For `Cc1ccc2c(c1)[nH]c(=S)n2C=C1C(=O)CC(C)(C)CC1=O`, the GI50 in the assay with CCRF-CEM, in the assay with A549, in the assay with SK-MEL-5, with NCI/ADR-RES, in the assay on SN12C and in the assay on SR was > 100 µM (inactive) each time. For the same compound, the GI50 with HCT-15 was greater than 100 µM; in the assay on A498, > 100 µM (inactive); with RXF 393, > 100 µM (inactive); with NCI-H23 it was > 100 µM (inactive); in the assay with SK-MEL-28, > 100 µM (inactive); with SK-OV-3, > 100 µM (inactive). The GI50 in the assay with COLO 205, in the assay with NCI-H522, in the assay with HL-60, in the assay on SF-268, in the assay with MCF7 and in the assay on UO-31 was > 100 µM (inactive) throughout.

Consider `O=C1/C(=C2/C(=O)N(c3ccccc3)c3ccccc32)Nc2ccccc21`, for which the GI50 is 92.3 µM (inactive) in the assay on CCRF-CEM; 37.2 µM (inactive) in the assay with A549; 22.3 µM (inactive) in the assay on SK-MEL-5; > 100 µM (inactive) in the assay on NCI/ADR-RES; 59.8 µM (inactive) in the assay on SN12C; 61.2 µM (inactive) with SR. Moreover, the GI50 with HCT-15 is 50 µM; in the assay on A498, 24.5 µM (inactive); in the assay with RXF 393, 15 µM (inactive); in the assay with NCI-H23, 63.5 µM (inactive); in the assay on SK-MEL-28, > 100 µM (inactive); in the assay with SK-OV-3, 43.6 µM (inactive). The GI50 in the assay on COLO 205 is 24.7 µM (inactive); in the assay with NCI-H522 it was 66.5 µM (inactive); with SF-268, 36.4 µM (inactive); in the assay with MCF7, 11.9 µM (inactive); with UO-31, 43.7 µM (inactive); in the assay with Malme-3M, 73.1 µM (inactive).

The values are drawn from ChEMBL document CHEMBL1201862, “PubChem BioAssay data set” (2004).
